Reference: patent publication US10301267B2, “Compounds” (AstraZeneca AB, priority 2006, dated 2019)
Like-named read-outs stand apart in the source and are kept apart here.

Tests used:
Type in all cases: biochemical
FGFR1 active kinase [1] = biological target: T1, FGFR1 active kinase (Homo sapiens, UniProt P11362); test: FGFR Kinase assay - Caliper; as to FGFR Kinase assay - Caliper, IC50: 408 µM ATP
Method: FGFR Kinase Assay—Caliper
To determine inhibition of FGFR activity, kinase assays were conducted using Caliper technology.
Kinase activity assays were performed in Greiner 384-well low volume plates, with a total reaction volume of 12 ul per well. Final concentration of FGFR1 active kinase in each reaction well was 7.2 nM. The substrate for each assay was a custom peptide with fluorescent tag (13 amino acids in length, […] with the fluorescene tag on the first K).
Compounds were serially diluted in 5% (v/v) DMSO, before being added to assay plates. The Enzyme (at 7.2 nM [final]) and Substrate (at 3.6 uM [final]) were added separately to the compound plates, in reaction buffer [comprising: 50 mM MOPS (Sigma, Catalogue No. M1254)—pH 6.5, 0.004% Triton (Sigma, Catalogue No. X-100), 2.4 mM DTT, 12 mM MgCl2, 408 uM ATP] resulting in a final DMSO concentration in the reaction mix of 0.8%.
Assay plates were incubated at room temperature for 1.5 h, before the reaction was stopped with the addition of buffer [comprising: 100 mM HEPES—pH7.5, 0.033% Brij-35 (Sigma Catalogue No. B4184), 0.22% Caliper Coating Reagent #3 (Caliper Life Sciences Catalogue No. 760050), 88 mM EDTA, 5% DMSO]. Stopped assay plates were then read using the Caliper LabChip® LC3000 (which uses microfludics to measure a shift in mobility between fluorescent labelled peptide and the FGFR1 kinase—phosphorylated form of this peptide).
In the assay, compounds were tested at a range of concentrations.
(§1) Percentage inhibition at 1 uM, as expressed herein, is a calculated value based on the curve fit that was generated experimentally. From the fitted curve plot, the effect of compound at a concentration of 1 uM was calculated as a percentage inhibition. The IC50 is the concentration of compound, which inhibits FGFR1 kinase activity by 50% in the context of this assay.

[2] = biological target: T2, His6-tagged FGFR kinase domain (Homo sapiens, UniProt P11362, C488A/C584S); test: FGFR Kinase assay - Elisa
T2 construct: FGFR kinase domain (amino acids 458-765, C488A, C584S) N-terminally fused to a His6-tag and TEV cleavage site; His6-tag plus linker and TEV cleavage site (printed as X1); made in house
Method: To determine inhibition of FGFR activity, kinase assays were conducted using ELISA (Enzyme-Linked Immunosorbent Assay) technology.
Kinase activity assays were performed in 384-well polypropylene plates (Matrix, Catalogue No. 4311. Matrix are part of Thermo Fisher Scientific, 22 Friars Drive, Hudson, N.H. 03051, USA) with a total volume of 40 μl in each well. Each well was coated with 2 μg of polyEAY substrate (Sigma, Catalogue No. P3899) at 4° C. overnight. The plates were then washed once with 100 μl PBS and once with 100 μl 50 mM HEPES (pH 7.4) prior to the addition of the kinase assay reagents. Reactions contained His6-tagged FGFR kinase domain (FGFR kinase domain (amino acids 458-765, C488A, C584S) N-terminally fused to a His6-tag and TEV cleavage site encoded by the following sequence; [[…]]. The final alanine denotes the start of the FGFR protein sequence. The resultant protein was expressed and purified based on Mohammadi et al, Cell Vol 86, 577-587 (1996). Each kinase reaction contained 0.1 ng His6-tagged FGFR kinase domain, 50 mM HEPES (pH 7.4), 0.1 mM Na3VO4, 0.1 mM DTT, 0.05% (v/v) Triton X100, 20 mM MgCl2, 160 μM ATP. Various concentrations of test compounds were each added in 5% (v/v) DMSO to yield a final assay DMSO concentration of 1.25% (v/v). The kinase reactions were incubated at room temperature for 45 minutes and stopped by washing the plate three times with 100 μl PBS plus 0.05% Tween. 40 μl of a one in 10000 dilution of 4G10-HRP antibody (Upstate Biotechnology, UBI 16-105. Upstate are part of Millipore Corporation, 290 Concord Road, Billerca Mass. 01821 USA) made up in 0.5% (w/v) BSA/PBS was then added to each well and the plates incubated at room temperature for one hour. Following this, the plates were then washed repeatedly with 100 μl PBS plus 0.05% Tween to remove all traces of the antibody solution. 40 μl of 50 μg/ml 3,3′,5,5′-Tetramethylbenzidine (Sigma, Catalogue No. T2885), 0.05M phosphate-citrate buffer, containing 0.03% sodium perborate was added to each well and the plates incubated at room temperature for twelve minutes. The colour reaction was stopped by the addition of 20 μl 2M H2SO4 and the plates read at 450 nm on a Spectrafluor Plus (Tecan Trading AG, Switzerland). In the assay, compounds were tested at a range of concentrations.
as §1, with “IC50 value” for “IC50”, “test compound that” for “compound, which”, “50% of FGFR” for “FGFR1”, “activity.” for “activity by 50% in the context of this assay.”

FGFR1 active kinase [3] = biological target: T1, FGFR1 active kinase; test: FGFR Kinase assay - Caliper Echo Dosing; settings: FGFR1 7.2 nM, 408 uM ATP, acoustic dosing; geometric mean of n
[4] = FGFR1 […], 408 uM ATP, mean of n as printed, read-out: FGFR Kinase assay - Caliper, IC50
[5] = FGFR inhibition test, Caliper, read-out: Activity class (FGFR Kinase assay - Caliper)
[6] = FGFR inhibition test, Elisa, read-out: Activity class (FGFR Kinase assay - Elisa)

T2 sequence (P11362 458-765 C488A/C584S): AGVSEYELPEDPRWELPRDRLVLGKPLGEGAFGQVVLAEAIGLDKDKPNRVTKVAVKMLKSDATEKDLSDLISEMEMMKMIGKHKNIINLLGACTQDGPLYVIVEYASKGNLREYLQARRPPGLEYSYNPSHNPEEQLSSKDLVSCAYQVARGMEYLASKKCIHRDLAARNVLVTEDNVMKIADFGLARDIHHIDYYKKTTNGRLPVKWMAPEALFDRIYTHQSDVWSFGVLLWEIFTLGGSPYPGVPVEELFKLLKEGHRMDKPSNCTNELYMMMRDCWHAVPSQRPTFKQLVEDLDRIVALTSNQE
T1 sequence (P11362 22-822): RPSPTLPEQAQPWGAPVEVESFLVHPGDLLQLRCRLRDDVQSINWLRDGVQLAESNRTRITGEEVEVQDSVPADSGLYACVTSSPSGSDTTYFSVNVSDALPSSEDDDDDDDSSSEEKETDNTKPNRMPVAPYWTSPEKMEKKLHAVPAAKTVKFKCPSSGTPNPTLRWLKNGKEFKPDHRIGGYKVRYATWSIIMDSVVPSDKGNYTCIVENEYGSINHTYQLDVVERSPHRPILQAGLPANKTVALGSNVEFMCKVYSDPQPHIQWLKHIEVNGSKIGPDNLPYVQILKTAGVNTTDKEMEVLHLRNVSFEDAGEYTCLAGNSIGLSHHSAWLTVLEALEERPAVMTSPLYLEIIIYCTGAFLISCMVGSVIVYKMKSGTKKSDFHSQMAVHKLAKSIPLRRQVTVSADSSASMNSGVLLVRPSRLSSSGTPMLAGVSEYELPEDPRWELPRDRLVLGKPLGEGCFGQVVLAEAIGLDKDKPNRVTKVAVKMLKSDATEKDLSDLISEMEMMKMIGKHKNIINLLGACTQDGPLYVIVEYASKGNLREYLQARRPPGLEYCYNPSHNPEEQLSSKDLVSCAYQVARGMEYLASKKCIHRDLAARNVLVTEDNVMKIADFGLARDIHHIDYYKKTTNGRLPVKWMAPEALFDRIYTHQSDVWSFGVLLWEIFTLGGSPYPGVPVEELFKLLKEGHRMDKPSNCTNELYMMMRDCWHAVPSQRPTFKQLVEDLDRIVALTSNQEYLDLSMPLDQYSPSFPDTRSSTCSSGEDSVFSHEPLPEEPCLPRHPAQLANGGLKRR

Row | Structure (SMILES) | IC50 (FGFR1 active kinase [1]; [4]) | IC50 (FGFR1 active kinase [1]; [5]) | IC50 [2, 6] | IC50 (FGFR1 active kinase [3]) | further results
1 | COc1cc(CCc2cc(NC(=O)c3ccc(CN4CCC(F)CC4)cc3)[nH]n2)cc(OC)c1 [Example 5, N-[5-[2-(3,5-dimethoxyphenyl)ethyl]-2H-pyrazol-3-yl]-4-[(4-fluoropiperidin-1-yl)methyl]benzamide] | 63 nM | < 300 nM | < 300 nM | – | –
2 | COc1cc(COc2cc(NC(=O)c3ccc(N4CCN(C)CC4)cc3)[nH]n2)cc(OC)c1 [Example 12, N-[5-[(3,5-dimethoxyphenyl)methoxy]-2H-pyrazol-3-yl]-4-(4-methylpiperazin-1-yl)benzamide] | – | – | < 300 nM | – | IC50 ([2]; polyEAY substrate, 160 μM ATP, read-out: FGFR Kinase assay - Elisa, IC50): 60 nM
3 | COc1cccc(CCc2cc(NC(=O)c3ccc(C)nc3)[nH]n2)c1 [Example 13, N-[5-[2-(3-Methoxyphenyl)ethyl]-2H-pyrazol-3-yl]-6-methyl-pyridine-3-carboxamide] | 950 nM | 300 to 1000 nM | 300 to 1000 nM | – | –
4 | COc1cc(CCc2cc(NC(=O)c3ccc(N4CCN(C5CC5)CC4)cc3)n[nH]2)cc(OC)c1 [Example 88, 4-(4-Cyclopropylpiperazin-1-yl)-N-[5-[2-(3,5-dimethoxyphenyl)ethyl]-1H-pyrazol-3-yl]benzamide] | 156 nM | – | – | 0.77 nM | –
5 | COc1ccc(C(=O)Nc2cc(CCc3cc(OC)cc(OC)c3)n[nH]2)cc1 [Example 3, N-[5-[2-(3,5-dimethoxyphenyl)ethyl]-2H-pyrazol-3-yl]-4-methoxy-benzamide] | 132 nM | < 300 nM | < 300 nM | – | –
6 | COc1cccc(CCc2cc(NC(=O)c3cnc(C)cn3)[nH]n2)c1 [Example 16, N-[5-[2-(3-Methoxyphenyl)ethyl]-2H-pyrazol-3-yl]-5-methyl-pyrazine-2-carboxamide] | 750 nM | 300 to 1000 nM | 300 to 1000 nM | – | –
7 | COCCOc1cccc(CCc2cc(NC(=O)c3ccc(N4CCN(C)CC4)cc3)[nH]n2)c1 [Example 6, N-[5-[2-[3-(2-methoxyethoxy)phenyl]ethyl]-2H-pyrazol-3-yl]-4-(4-methylpiperazin-1-yl)benzamide] | 58 nM | < 300 nM | < 300 nM | – | –
8 | COc1cccc(CCc2cc(NC(=O)c3ccc(OC)nc3)[nH]n2)c1 [Example 14, 6-Methoxy-N-[5-[2-(3-methoxyphenyl)ethyl]-2H-pyrazol-3-yl]pyridine-3-carboxamide] | 610 nM | 300 to 1000 nM | 300 to 1000 nM | – | IC50 (FGFR1 active kinase [1]; footnote example, read-out: FGFR Kinase assay - Caliper, value in table footnote): 612 nM; IC50 ([2]; footnote example, read-out: FGFR Kinase assay - Elisa, value in table footnote): 732 nM
9 | COc1cccc(CCc2cc(NC(=O)c3ccc(NC(C)=O)cc3)[nH]n2)c1 [Example 19, 4-Acetamido-N-[5-[2-(3-methoxyphenyl)ethyl]-2H-pyrazol-3-yl]benzamide] | 400 nM | 300 to 1000 nM | < 300 nM | – | –
10 | COc1cccc(CCc2cc(NC(=O)c3ccc(S(C)(=O)=O)cc3)[nH]n2)c1 [Example 15, N-[5-[2-(3-Methoxyphenyl)ethyl]-2H-pyrazol-3-yl]-4-methylsulfonyl-benzamide] | 110 nM | < 300 nM | < 300 nM | – | –
11 | COc1cc(CCc2cc(NC(=O)c3ccc(N4CCOCC4)cc3)[nH]n2)cc(OC)c1 [Example 4, N-[5-[2-(3,5-dimethoxyphenyl)ethyl]-2H-pyrazol-3-yl]-4-morpholin-4-yl-benzamide] | 68 nM | < 300 nM | < 300 nM | – | –
12 | COc1cc(COc2cc(NC(=O)c3cnc(N4CCN(C)CC4)cn3)[nH]n2)cc(OC)c1 [Example 20, N-[5-[(3,5-Dimethoxyphenyl)methoxy]-2H-pyrazol-3-yl]-5-(4-methylpiperazin-1-yl)pyrazine-2-carboxamide] | 46 nM | < 300 nM | < 300 nM | – | –
13 | C=CCN1CCCN(c2ncc(C(=O)Nc3cc(CCc4cc(OC)cc(OC)c4)n[nH]3)cn2)CC1 [Example 175, N-[5-[2-(3,5-dimethoxyphenyl)ethyl]-2H-pyrazol-3-yl]-2-(4-prop-2-enyl-1,4-diazepan-1-yl)pyrimidine-5-carboxamide] | – | – | – | 7 nM | –
14 | COc1cc(COc2cc(NC(=O)c3ccc(N4CCN(C5CCC5)CC4)cc3)[nH]n2)cc(OC)c1 [Example 118, 4-(4-Cyclobutylpiperazin-1-yl)-N-[5-[(3,5-dimethoxyphenyl)methoxy]-2H-pyrazol-3-yl]benzamide] | – | – | – | 1.1 nM | –
15 | CCN(CC)C1CCN(c2cnc(C(=O)Nc3cc(CCc4cc(OC)cc(OC)c4)n[nH]3)cn2)C1 (stereo not shown) [Example 158, 5-(3-diethylaminopyrrolidin-1-yl)-N-[5-[2-(3,5-dimethoxyphenyl)ethyl]-2H-pyrazol-3-yl]pyrazine-2-carboxamide] | – | – | – | 2.9 nM | –
16 | COc1cc(CCc2cc(NC(=O)c3cnc(N4CCNC(C)(C)C4)cn3)[nH]n2)cc(OC)c1 [Example 108, N-[5-[2-(3,5-dimethoxyphenyl)ethyl]-2H-pyrazol-3-yl]-5-(3,3-dimethylpiperazin-1-yl)pyrazine-2-carboxamide] | – | – | – | 2 nM | –
17 | COc1cc(CCc2cc(NC(=O)c3ccc(N4CCN(C)CC4)s3)[nH]n2)cc(OC)c1 [Example 106, N-[5-[2-(3,5-dimethoxyphenyl)ethyl]-2H-pyrazol-3-yl]-5-(4-methylpiperazin-1-yl)thiophene-2-carboxamide] | – | – | – | 1 nM | –
18 | CCN1CCCN(c2ncc(C(=O)Nc3cc(CCc4cc(OC)cc(OC)c4)n[nH]3)cn2)CC1 [Example 171, N-[5-[2-(3,5-dimethoxyphenyl)ethyl]-2H-pyrazol-3-yl]-2-(4-ethyl-1,4-diazepan-1-yl)pyrimidine-5-carboxamide] | – | – | – | 9.2 nM | –
19 | COc1cc(CCc2cc(NC(=O)c3ccc(N4CCCN(C(C)C)CC4)cc3)[nH]n2)cc(OC)c1 [Example 166, N-[5-[2-(3,5-dimethoxyphenyl)ethyl]-2H-pyrazol-3-yl]-4-(4-propan-2-yl-1,4-diazepan-1-yl)benzamide] | – | – | – | 0.7 nM | –
20 | COc1cc(CCc2cc(NC(=O)c3cnc(N4CCN(C)CC4)nc3)[nH]n2)cc(OC)c1 [Example 85, N-[5-[2-(3,5-Dimethoxyphenyl)ethyl]-2H-pyrazol-3-yl]-2-(4-methylpiperazin-1-yl)pyrimidine-5-carboxamide] | 118 nM | – | – | 14.9 nM | –
21 | COc1cc(COc2cc(NC(=O)c3ccc(N4CC5CCCNC5C4)cc3)[nH]n2)cc(OC)c1 (stereo not shown) [Example 151, 4-(1,2,3,4,4a,5,7,7a-octahydropyrrolo[3,4-b]pyridin-6-yl)-N-[5-[(3,5-dimethoxyphenyl)methoxy]-2H-pyrazol-3-yl]benzamide] | – | – | – | 1.3 nM | –
